From PMC2879007 (Biochemical pharmacology, 2010)
Marks after values point to notes of the source that are not given here.

What was measured:
CYP2D6.1 = CYP2D6.1 (Homo sapiens, UniProt P10635); test: bufotenine production from 5-MeO-DMT by recombinant CYP2D6.1; format: in vitro ADME
CYP2D6.2 = CYP2D6.2 (Homo sapiens, UniProt P10635, R296C/S486T); test: bufotenine production from 5-MeO-DMT by recombinant CYP2D6.2; format: in vitro ADME
CYP2D6.10 = CYP2D6.10 (Homo sapiens, UniProt P10635, P34S/S486T); test: bufotenine production from 5-MeO-DMT by recombinant CYP2D6.10; format: in vitro ADME
[1] = serum pharmacokinetics in wild-type FVB/N mice; format: in vivo; details: for Cmax / MRT / Tmax / half-life: FVB/N (wild-type), mouse, ip; for Cmax / MRT / Tmax / half-life / AUC0→∞: serum; for increase of Cmax by co-administered harmaline / increase of MRT by co-administered harmaline / increase of systemic exposure (AUC0→∞) by harmaline pre-treatment: 5-MeO-DMT 2 mg/kg i.p., harmaline 5 mg/kg i.p.
[2] = serum pharmacokinetics in Tg-CYP2D6; format: in vivo, mice; details: for Cmax / MRT / Tmax / half-life: Tg-CYP2D6 (CYP2D6-humanized), mouse, ip; for Cmax / MRT / Tmax / half-life / AUC0→∞: serum; for increase of systemic exposure (AUC0→∞) by harmaline pre-treatment: 5-MeO-DMT 2 mg/kg i.p., harmaline 5 mg/kg i.p.
[3] = 5-MeO-DMT depletion and bufotenine formation in human CYP2D6 PM hepatocytes; details: human, 5-MeO-DMT alone, 2 µM; for hepatocyte CLint at 2 µM: In vitro CLint
[4] = test system: human CYP2D6 PM hepatocytes; test: as above
[5] = 5-MeO-DMT depletion and bufotenine formation in human CYP2D6 EM hepatocytes; details: human, 5-MeO-DMT alone, 2 µM; for hepatocyte CLint at 2 µM: In vitro CLint
[6] = test system: human CYP2D6 EM hepatocytes; test: as above
purified human MAO-A = details: reversible competitive inhibitor; cited from earlier work
[7] = bufotenine production from 5-MeO-DMT, Vmax/Km
[8] = bufotenine production from 5-MeO-DMT, mean ± SEM
[9] = 5-MeO-DMT O-demethylase activity
[10] = wild-type mice, 2 mg/kg 5-MeO-DMT alone i.p.
[11] = Tg-CYP2D6 mice, 2 mg/kg 5-MeO-DMT alone i.p.
[12] = PM hepatocytes 2, with harmaline, 2 µM each
[13] = PM hepatocytes 3, with harmaline, 2 µM each
[14] = PM hepatocytes 4, with harmaline, 2 µM each

COc1ccc2[nH]cc(CCN(C)C)c2c1 [5-MeO-DMT, 5-Methoxy-N,N-dimethyltryptamine]
CLint (CYP2D6.1; [7]): 0.44 µL/pmol P450/min
Vmax (CYP2D6.1; [8]): 12.8 ± 0.4 pmol/pmol P450/min
Km at 5 min (CYP2D6.1; human, recombinant CYP2D6.1 reconstituted with P450 reductase, pH 7.4): 29.3 ± 4.2 µM
lower catalytic efficiency (Vmax/Km) compared with wild-type CYP2D6.1 (CYP2D6.2; [9]): 2.6 fold
CLint (CYP2D6.2; [7]): 0.17 µL/pmol P450/min
Vmax (CYP2D6.2; [8]): 14.4 ± 0.9 pmol/pmol P450/min
Km at 5 min (CYP2D6.2; human, recombinant CYP2D6.2 reconstituted with P450 reductase, pH 7.4): 85 ± 19.4 µM
lower catalytic efficiency (Vmax/Km) compared with wild-type CYP2D6.1 (CYP2D6.10; [9]): 40 fold
CLint (CYP2D6.10; [7]): 0.011 µL/pmol P450/min
Vmax (CYP2D6.10; [8]): 10.3 ± 2.2 pmol/pmol P450/min
Km at 20 min (CYP2D6.10; human, recombinant CYP2D6.10 reconstituted with P450 reductase, pH 7.4): 947 ± 355 µM
Cmax ([1]; 2 mg/kg): 1360 ± 160 nM
MRT ([1]; 2 mg/kg): 19.1 min
Tmax ([1]; 2 mg/kg): 5.3 min
half-life ([1]; 2 mg/kg): 19.5 ± 12.2 min
Cmax ([1]; 20 mg/kg): 18300 ± 2800 nM
MRT ([1]; 20 mg/kg): 27.2 min
Tmax ([1]; 20 mg/kg): 7.5 min
half-life ([1]; 20 mg/kg): 13.4 ± 1 min
AUC0→∞ [1, 10]: 25.1 ± 1.3 µmol·min/L
AUC0→∞ ([1]; wild-type mice, 20 mg/kg 5-MeO-DMT i.p.): 650 ± 78 µmol·min/L
clearance [1, 10]: 370 ± 20 mL/min/kg
increase of Cmax by co-administered harmaline ([1]; wild-type mice): about 1.4 fold
increase of MRT by co-administered harmaline ([1]; wild-type mice): ~2.1 fold
increase of systemic exposure (AUC0→∞) by harmaline pre-treatment ([1]; wild-type mice): 4.4 fold
Cmax ([2]; 2 mg/kg): 1190 ± 330 nM
MRT ([2]; 2 mg/kg): 17.4 min
Tmax ([2]; 2 mg/kg): 5.8 min
half-life ([2]; 2 mg/kg): 14.7 ± 9 min
Cmax ([2]; 20 mg/kg): 18700 ± 900 nM
MRT ([2]; 20 mg/kg): 23.1 min
Tmax ([2]; 20 mg/kg): 6.3 min
half-life ([2]; 20 mg/kg): 13.4 ± 1.4 min
clearance [2, 11]: 440 ± 50 mL/min/kg
increase of systemic exposure (AUC0→∞) by harmaline pre-treatment ([2]; Tg-CYP2D6 mice): 3.6 fold
AUC0→∞ [2, 11]: 21.1 ± 2.3 ^b µmol·min/L
AUC0→∞ ([2]; Tg-CYP2D6 mice, 20 mg/kg 5-MeO-DMT i.p.): 568 ± 72 µmol·min/L
hepatocyte CLint at 2 µM ([3]; CYP2D6 PM hepatocytes, PM hepatocytes Mean (N = 4)): 81.9 µL/min/1e6 cells
half-life at 2 µM ([3]; CYP2D6 PM hepatocytes, In vitro T1/2, PM hepatocytes Mean (N = 4)): 30.8 min
hepatocyte CLint at 2 µM ([3]; human CYP2D6 PM (poor metabolizer) hepatocytes, PM hepatocytes 1): 66.5 µL/min/1e6 cells
hepatocyte CLint at 2 µM ([3]; human CYP2D6 PM (poor metabolizer) hepatocytes, PM hepatocytes 2): 95.8 µL/min/1e6 cells
hepatocyte CLint at 2 µM ([3]; human CYP2D6 PM (poor metabolizer) hepatocytes, PM hepatocytes 3): 88 µL/min/1e6 cells
half-life at 2 µM ([3]; human CYP2D6 PM (poor metabolizer) hepatocytes, In vitro T1/2, PM hepatocytes 1): 37.2 min
half-life at 2 µM ([3]; human CYP2D6 PM (poor metabolizer) hepatocytes, In vitro T1/2, PM hepatocytes 2): 27.6 min
half-life at 2 µM ([3]; human CYP2D6 PM (poor metabolizer) hepatocytes, In vitro T1/2, PM hepatocytes 3): 32.2 min
half-life at 2 µM ([3]; human CYP2D6 PM (poor metabolizer) hepatocytes, In vitro T1/2, PM hepatocytes 4): 26.1 min
Ke ([4]; PM hepatocytes 1, 5-MeO-DMT alone, 2 µM): 0.0186 min⁻¹
Ke ([4]; PM hepatocytes 1, with harmaline, 2 µM each): 0.00086 min⁻¹
Ke ([4]; PM hepatocytes 2, 5-MeO-DMT alone, 2 µM): 0.0251 min⁻¹
In vitro T1/2 [4, 12]: cannot be estimated
Ke [4, 12]: cannot be estimated
Ke ([4]; PM hepatocytes 3, 5-MeO-DMT alone, 2 µM): 0.0215 min⁻¹
In vitro T1/2 [4, 13]: cannot be estimated
Ke [4, 13]: cannot be estimated
Ke ([4]; PM hepatocytes 4, 5-MeO-DMT alone, 2 µM): 0.0265 min⁻¹
In vitro T1/2 [4, 14]: cannot be estimated
Ke [4, 14]: cannot be estimated
Ke ([4]; PM hepatocytes Mean (N = 4), 5-MeO-DMT alone, 2 µM): 0.0229 min⁻¹
Ke ([4]; PM hepatocytes Mean (only one sample estimable), with harmaline, 2 µM each): 0.00086 min⁻¹
half-life at 2 µM ([5]; CYP2D6 EM hepatocytes, In vitro T1/2, EM hepatocytes 1): 32.4 min
half-life at 2 µM ([5]; CYP2D6 EM hepatocytes, In vitro T1/2, EM hepatocytes 2): 29.9 min
hepatocyte CLint at 2 µM ([5]; human CYP2D6 EM (extensive metabolizer) hepatocytes, EM hepatocytes 3): 141 µL/min/1e6 cells
hepatocyte CLint at 2 µM ([5]; human CYP2D6 EM (extensive metabolizer) hepatocytes, EM hepatocytes 4): 51 µL/min/1e6 cells
hepatocyte CLint at 2 µM ([5]; human CYP2D6 EM (extensive metabolizer) hepatocytes, EM hepatocytes 5): 87.4 µL/min/1e6 cells
half-life at 2 µM ([5]; human CYP2D6 EM (extensive metabolizer) hepatocytes, In vitro T1/2, EM hepatocytes 3): 25.4 min
half-life at 2 µM ([5]; human CYP2D6 EM (extensive metabolizer) hepatocytes, In vitro T1/2, EM hepatocytes 4): 34.7 min
half-life at 2 µM ([5]; human CYP2D6 EM (extensive metabolizer) hepatocytes, In vitro T1/2, EM hepatocytes 5): 20.8 min
half-life at 2 µM ([5]; human CYP2D6 EM (extensive metabolizer) hepatocytes, In vitro T1/2, EM hepatocytes Mean (N = 5)): 28.6 min
reduction of in vitro CLint by co-administered harmaline ([6]; CYP2D6 EM hepatocytes, 5-MeO-DMT alone vs with harmaline): over 24 fold
Ke ([6]; EM hepatocytes 1, 5-MeO-DMT alone, 2 µM): 0.0214 min⁻¹
Ke ([6]; EM hepatocytes 1, with harmaline, 2 µM each): 0.00259 min⁻¹
Ke ([6]; EM hepatocytes 2, 5-MeO-DMT alone, 2 µM): 0.0232 min⁻¹
Ke ([6]; EM hepatocytes 2, with harmaline, 2 µM each): 0.00141 min⁻¹
Ke ([6]; EM hepatocytes 3, 5-MeO-DMT alone, 2 µM): 0.0273 min⁻¹
Ke ([6]; EM hepatocytes 3, with harmaline, 2 µM each): 0.00263 min⁻¹
Ke ([6]; EM hepatocytes 4, 5-MeO-DMT alone, 2 µM): 0.02 min⁻¹
Ke ([6]; EM hepatocytes 4, with harmaline, 2 µM each): 0.00195 min⁻¹
Ke ([6]; EM hepatocytes 5, 5-MeO-DMT alone, 2 µM): 0.0333 min⁻¹
Ke ([6]; EM hepatocytes 5, with harmaline, 2 µM each): 0.00061 min⁻¹
Ke ([6]; EM hepatocytes Mean (N = 5), 5-MeO-DMT alone, 2 µM): 0.025 min⁻¹
Ke ([6]; EM hepatocytes Mean (N = 5), with harmaline, 2 µM each): 0.00184 min⁻¹

CN(C)CCc1c[nH]c2ccc(O)cc12 [Bufotenine, 5-hydroxy-N,N-dimethyltryptamine]
Cmax ([1]; 2 mg/kg): 51.4 ± 9.1 nM
MRT ([1]; 2 mg/kg): 54.9 min
Tmax ([1]; 2 mg/kg): 11.3 min
half-life ([1]; 2 mg/kg): 33 ± 26 min
Cmax ([1]; 20 mg/kg): 210 ± 54 nM
MRT ([1]; 20 mg/kg): 55.8 min
Tmax ([1]; 20 mg/kg): 21.3 min
half-life ([1]; 20 mg/kg): 25.4 ± 5.3 min
AUC0→∞ [1, 10]: 2.69 ± 1.21 µmol·min/L
AUC(Bufotenine)/AUC(5−MeO−DMT) [1, 10]: 10.5 ± 4.4%
AUC(Bufotenine)/AUC(5−MeO−DMT) ([1]; wild-type mice, 2 mg/kg 5-MeO-DMT i.p. with 5 mg/kg harmaline i.p. pretreatment): 15.1 ± 2.9%
increase of Cmax by co-administered harmaline ([1]; wild-type mice): about 2.6 fold
increase of MRT by co-administered harmaline ([1]; wild-type mice): ~1.8 fold
increase of systemic exposure (AUC0→∞) by harmaline pre-treatment ([1]; wild-type mice): 6.1 fold
higher systemic exposure in Tg-CYP2D6 mice than wild-type mice ([2]; 20 mg/kg 5-MeO-DMT i.p.): 60%
Cmax ([2]; 2 mg/kg): 53 ± 13 nM
MRT ([2]; 2 mg/kg): 33.7 min
Tmax ([2]; 2 mg/kg): 8.8 min
half-life ([2]; 2 mg/kg): 20.7 ± 9.8 min
MRT ([2]; 20 mg/kg): 52.8 min
Tmax ([2]; 20 mg/kg): 27.5 min
half-life ([2]; 20 mg/kg): 18.5 ± 1.5 min
AUC(Bufotenine)/AUC(5−MeO−DMT) [2, 11]: 8.5 ± 2.8%
AUC(Bufotenine)/AUC(5−MeO−DMT) ([2]; Tg-CYP2D6 mice, 2 mg/kg 5-MeO-DMT i.p. with 5 mg/kg harmaline i.p. pretreatment): 24.0 ± 3.3% ^a, ^b
increase of systemic exposure (AUC0→∞) by harmaline pre-treatment ([2]; Tg-CYP2D6 mice): 9.9 fold
AUC0→∞ [2, 11]: 1.82 ± 0.74 µmol·min/L
bufotenine formation from 5-MeO-DMT ([4]; CYP2D6 PM hepatocytes, even co-incubated with harmaline): could not produce detectable bufotenine
bufotenine formation from 5-MeO-DMT ([6]; CYP2D6 EM hepatocytes): only detected in incubations with CYP2D6 EM hepatocytes

COc1ccc2c3c([nH]c2c1)C(C)=NCC3 [Harmaline]
Ki (purified human MAO-A): 48 nM
